These results are taken from US5547978A, “Derivatives of pyrrolidin-2-ylcarbonylheterocyclic compounds” (priority 1994, dated 1996).

In the first assay the target is T1, prolyl endopeptidase (Sus scrofa, UniProt P23687).
T1 construct: porcine kidney enzyme which was prepared according to methods of Walter and Yoshimoto et al; from tissue; host or cells: porcine kidney
T1 sequence (P23687 whole entry): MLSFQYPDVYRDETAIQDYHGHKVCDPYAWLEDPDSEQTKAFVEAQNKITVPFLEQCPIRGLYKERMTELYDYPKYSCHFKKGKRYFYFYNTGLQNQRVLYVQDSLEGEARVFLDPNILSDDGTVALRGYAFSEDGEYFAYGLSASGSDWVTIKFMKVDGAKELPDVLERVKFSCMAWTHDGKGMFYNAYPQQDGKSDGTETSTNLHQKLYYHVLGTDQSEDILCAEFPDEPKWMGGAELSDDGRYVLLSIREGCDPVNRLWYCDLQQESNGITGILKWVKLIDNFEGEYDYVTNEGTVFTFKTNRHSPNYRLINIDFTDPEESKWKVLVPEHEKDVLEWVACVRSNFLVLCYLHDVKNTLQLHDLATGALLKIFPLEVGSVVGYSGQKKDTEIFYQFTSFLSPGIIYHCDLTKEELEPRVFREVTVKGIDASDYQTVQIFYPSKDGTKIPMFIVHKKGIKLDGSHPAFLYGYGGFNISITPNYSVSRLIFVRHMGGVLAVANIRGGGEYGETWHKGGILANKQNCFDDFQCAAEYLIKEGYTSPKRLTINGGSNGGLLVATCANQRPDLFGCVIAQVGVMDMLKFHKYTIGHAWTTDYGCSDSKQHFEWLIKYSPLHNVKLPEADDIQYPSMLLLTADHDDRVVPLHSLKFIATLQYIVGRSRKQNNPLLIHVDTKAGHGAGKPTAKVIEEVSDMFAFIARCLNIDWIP
Description: Prolyl endopeptidase-inhibitory activity in vitro (porcine kidney enzyme, Z-Gly-Pro-p-nitroanilide substrate). It counts as biochemical.
Details: not given
The method, then:
A test compound (2 mg) was dissolved in DMSO (2 ml) and diluted to appropriate concentrations with DMSO. Z-Gly-Pro-p-nitroanilide (8 mg), a substrate was dissolved in dioxane (5 ml), water (27 ml) and 0.2 M phosphate buffer (pH 7.8, 40 ml). The substrate solution ([…]) was mixed with an inhibitor solution (3 ml) and followed by addition of above mentioned porcine kidney enzyme solution ([…]). Immediately after the mixing the UV absorbance at 405 nm was detected. The mixture was incubated at 37° C. for 20 min. and the UV absorbance was checked. A standard curve of absorbance (OD) vs. p-nitroaniline concentration was used to relate the absorbance to amount of substrate hydrolyzed. […] The inhibiting activity was obtained following the equation below. The IC50 value was estimated from the inhibitor concentration vs. inhibitory activity curve.
The percent inhibitory activity (%)=(ΔODc -ΔODs)/ΔODc ×100
ΔODs : ΔOD for test sample
The IC50 is the concentration at which inhibition is half-maximal. For the compound `Cc1nc(C(=O)[C@@H]2CCCN2C(=O)[C@@H]2CCCN2C(=O)CCCc2ccccc2)sc1C` [Example 27, 4,5-Dimethyl-2-[1-{1-(4-phenylbutanoyl)pyrrolidin-2(S)-ylcarbonyl}pyrrolidin-2(S)-ylcarbonyl]thiazole], the IC50 was 6.06 nM.
In the case of `O=C(c1cncnc1)[C@@H]1CCCN1C(=O)[C@@H]1CCCN1C(=O)CCCc1ccccc1` [Example 31, 5-[1-{1-(4-Phenylbutanoyl)pyrrolidin-2(S)-ylcarbonyl}pyrrolidin-2(S)-ylcarbonyl]pyrimidine], 64.2 nM corresponded to half-maximal inhibition (IC50).
Still for that read-out and setting: as for `O=C(c1nccs1)[C@@H]1CCCN1C(=O)[C@@H]1Cc2ccccc2N1C(=O)CCCc1ccccc1` [Example 9, 2-[1-{1-(4-Phenylbutanoyl)indolin-2(S)-ylcarbonyl}pyrrolidin-2(S)-ylcarbonyl]thiazole], the figure is 5.49 nM; as for `O=C(c1nc2ccccc2s1)[C@@H]1CCCN1C(=O)[C@@H]1C[C@@H](Sc2ccccc2)CN1C(=O)OCc1ccccc1` [Example 20, 2-{1-(1-Benzyloxycarbonyl-4(R)-phenylthiopyrrolidin-2(S)-ylcarbonyl)pyrrolidin-2(S)-ylcarbonyl}benzothiazole], 2.45 nM.
Same read-out and setting: as for `O=C(c1nc2ncccc2[nH]1)[C@@H]1CCCN1C(=O)[C@@H]1CCCN1C(=O)CCCc1ccccc1` [Example 38, 2-[1-{1-(4-Phenylbutanoyl)pyrrolidin-2(S)-ylcarbonyl}pyrrolidin-2(S)-ylcarbonyl]imidazo[4,5-b]pyridine], the figure is 6.09 nM; as for `O=C(c1ccccn1)[C@@H]1CCCN1C(=O)[C@@H]1CCCN1C(=O)CCCc1ccccc1` [Example 32, 2-[1-{1-(4-Phenylbutanoyl)pyrrolidin-2(S)-ylcarbonyl}pyrrolidin-2(S)-ylcarbonyl]pyridine], 7.15 nM.
The same measure, in the same setting: as for `O=C(c1nc2ccccc2[nH]1)[C@@H]1CCCN1C(=O)[C@@H]1CCCN1C(=O)OCc1ccccc1` [Example 39], the figure is 7.61 nM; as for `O=C(c1nc2ccccc2s1)[C@@H]1CCCN1C(=O)[C@@H]1CCCN1C(=O)OCc1ccccc1` [Example 17, 2-{1-(1-Benzyloxycarbonylpyrrolidin-2(S)-ylcarbonyl)pyrrolidin-2(S)-ylcarbonyl}benzothiazole], 3.78 nM.
In the case of `O=C(c1cccnc1)[C@@H]1CCCN1C(=O)[C@@H]1CCCN1C(=O)CCCc1ccccc1` [Example 30, 3-[1-{1-(4-Phenylbutanoyl)pyrrolidin-2(S)-ylcarbonyl}pyrrolidin-2(S)-ylcarbonyl]pyridine], the midpoint of inhibition, the IC50, lay at 2620 nM.
`O=C(c1nccs1)[C@@H]1CCCN1C(=O)[C@@H]1C[C@@H](Sc2ccccc2)CN1C(=O)OCc1ccccc1` [Example 2, 2-[1-{1-Benzyloxycarbonyl-4(R)-phenylthiopyrrolidin-2(S)-ylcarbonyl}pyrrolidin-2(S)-ylcarbonyl]thiazole] had a half-maximal inhibitory concentration (IC50) of 4.79 nM.
Same read-out and setting: as for `O=C(c1nc2ccccc2s1)[C@@H]1CCCN1C(=O)[C@@H]1C[C@@H](Sc2ccccc2)CN1C(=O)CCCc1ccccc1` [Example 21, 2-[1-{1-(4-Phenylbutanoyl)-4(R)-phenylthiopyrrolidin-2(S)-ylcarbonyl}pyrrolidin-2(S)-ylcarbonyl]benzothiazole], the figure is 1.8 nM.
On the same count and under the same terms, next, `O=C(c1nccs1)[C@@H]1CCCN1C(=O)[C@@H]1CC2CCCCC2N1C(=O)OCc1ccccc1` (stereo partly drawn) [Example 6, 2-{1(1-Benzyloxycarbonyloctahydroindol-2(S)-ylcarbonyl)pyrrolidin-2(S)ylcarbonyl}thiazole]: 4.28 nM.
Still for that read-out and setting: as for `O=C(c1nc2ccccc2[nH]1)[C@@H]1CCCN1C(=O)[C@@H]1CCCN1C(=O)CCCc1ccccc1` [Example 29, 2-[1-{1-(4-Phenylbutanoyl)pyrrolidin-2(S)-ylcarbonyl}pyrrolidin-2(S)-ylcarbonyl]-1H-benzimidazole], the figure is 3.82 nM.
`O=C(c1nc2ccccc2s1)[C@@H]1CCCN1C(=O)[C@@H]1Cc2ccccc2N1C(=O)CCCc1ccccc1` [Example 19, 2-[1-{1-(4-Phenylbutanoyl)indolin-2(S)-ylcarbonyl}pyrrolidin-2(S)-ylcarbonyl]benzothiazole] had a 50% inhibitory concentration (IC50) of 5.44 nM.
The same measure, in the same setting: next, `O=C(c1nc2ccccc2s1)[C@@H]1CCCN1C(=O)[C@@H]1Cc2ccccc2N1C(=O)OCc1ccccc1` [Example 18, 2-{1-(1-Benzyloxycarbonylindolin-2(S)-ylcarbonyl)pyrrolidin-2(S)-ylcarbonyl}benzothiazole]: 7.33 nM; `COc1nccnc1C(=O)[C@@H]1CCCN1C(=O)[C@@H]1CCCN1C(=O)CCCc1ccccc1` [Example 40, 2-Methoxy-3-[1-{1-(4-phenylbutanoyl)pyrrolidine-2(S)-ylcarbonyl}pyrrolidin-2(S)-ylcarbonyl]pyrazine]: 33.3 nM; `O=C(c1nccs1)[C@@H]1CCCN1C(=O)[C@@H]1CCCN1C(=O)OCc1ccccc1` [Example 4, 2-{1-(1-Benzyloxycarbonylpyrrolidin-2(S)-ylcarbonyl)pyrrolidin-2(S)-ylcarbonyl}thiazole]: 5.8 nM.
As for `O=C(c1nccs1)[C@@H]1CCCN1C(=O)[C@@H]1CC2CCCCC2N1C(=O)CCCc1ccccc1` (stereo partly drawn) [Example 7, 2-[1-{1-(4-Phenylbutanoyl)octahydroindol-2(S)-ylcarbonyl}pyrrolidin-2(S)-ylcarbonyl]thiazole], the IC50 is 2.4 nM.
Same read-out and setting: as for `O=C(CSCc1ccccc1)C1CCCCC1C(=O)N1CCC[C@H]1C(=O)c1nccs1` (stereo partly drawn) [Example 16, 2-[1-(2-Benzylthioacetylcyclohexan-1-ylcarbonyl)pyrrolidin-2(S)-ylcarbonyl]thiazole], the figure is 53.7 nM.
On the same count and under the same terms, next, `O=C(CSCc1ccccc1)C1CCCCC1C(=O)N1CCC[C@H]1C(=O)c1nc2ccccc2s1` (stereo partly drawn) [Example 22, 2-[1-(2-Benzylthioacetylcyclohexan-1-ylcarbonyl)pyrrolidin-2(S)-ylcarbonyl]benzothiazole]: 12.6 nM; `O=C(c1nc2ncccc2o1)[C@@H]1CCCN1C(=O)[C@@H]1CCCN1C(=O)CCCc1ccccc1` [Example 37, 2-[1 -{1-(4-Phenylbutanoyl)pyrrolidin-2(S)-ylcarbonyl}pyrrolidin-2(S)-ylcarbonyl]oxazolo[4,5-b]pyridine]: 4.78 nM.
Same read-out and setting: as for `O=C(C1=NCCS1)[C@@H]1CCCN1C(=O)[C@@H]1CCCN1C(=O)CCCc1ccccc1` [Example 41, 2-[1-{1-(4-Phenylbutanoyl)pyrrolidin-2(S)-ylcarbonyl}pyrrolidin-2(S)-ylcarbonyl]thiazoline], the figure is 3.98 nM; as for `O=C(c1nccs1)[C@@H]1CCCN1C(=O)[C@@H]1C[C@@H](Sc2ccccc2)CN1C(=O)CCCc1ccccc1` [Example 10, 2-[1-{1-(4-Phenylbutanoyl)-4(R)-phenylthiopyrrolidin-2(S)-ylcarbonyl}-pyrrolidin-2(S)-ylcarbonyl]thiazole], 1.12 nM; as for `O=C(c1nc[nH]n1)[C@@H]1CCCN1C(=O)[C@@H]1CCCN1C(=O)CCCc1ccccc1` [Example 34, 3-[1-{1-(4-Phenylbutanoyl)pyrrolidin-2(S)-ylcarbonyl}pyrrolidin-2(S)-ylcarbonyl]1,2,4-triazole], 6.11 nM.
`O=C(c1nc2ccccc2o1)[C@@H]1CCCN1C(=O)[C@@H]1CCCN1C(=O)CCCc1ccccc1` [Example 36, 2-[1-{1-(4-Phenylbutanoyl)pyrrolidin-2(S)-ylcarbonyl}pyrrolidin-2(S)-ylcarbonyl]benzoxazole]: the IC50 was 4.13 nM.

The assay is the same for the next values; noted with them: porcine kidney enzyme, pH 7.8, 37° C., 20 min.
With `O=C(c1cccs1)[C@@H]1CCCN1C(=O)[C@@H]1CCCN1C(=O)CCCc1ccccc1` [Example 26, 2-[1-{1-(4-Phenylbutanoyl)pyrrolidin-2(S)-ylcarbonyl}pyrrolidin-2(S)-ylcarbonyl]thiophene], the IC50 amounted to 0.81 µg/mL.
The same measure, in the same setting: next, `O=C(c1nccs1)[C@@H]1CCCN1C(=O)[C@@H]1CCCN1C(=O)CCCc1ccccc1` [Example 5, 2-[1-{1(4-Phenylbutanoyl)pyrrolidin-2(S)-ylcarbonyl}pyrrolidin-2(S)-ylcarbonyl]thiazole]: 0.00133 µg/mL.
The same measure, in the same setting: next, “2-[1-{1-(4-Phenylbutanoyl)pyrrolidin-2(S)-ylcarbonyl}pyrrolidin-2(S)-ylcarbonyl]oxazole [Example 23]”: 0.0032 µg/mL; “2-[1-{1-(4-Phenylbutanoyl)pyrrolidin-2(S)-ylcarbonyl}pyrrolidin-2(S)-ylcarbonyl]pyrazole [Example 35]”: 0.046 µg/mL; `O=C(c1cncs1)[C@@H]1CCCN1C(=O)[C@@H]1CCCN1C(=O)CCCc1ccccc1` [Example 33, 5-[1-{1-(4-Phenylbutanoyl)pyrrolidin-2(S)-ylcarbonyl}pyrrolidin-2(S)-ylcarbonyl]thiazole]: 0.275 µg/mL.
Consider “2-[1-{1-(4-Phenylbutanoyl)indolin-2(S)-ylcarbonyl}pyrrolidin-2(S)-ylcarbonyl]oxazole [Example 24]”, for which the IC50 is 0.0055 µg/mL.
Same read-out and setting: as for `O=C(CSCc1ccccc1)C1CCCC1C(=O)N1CCC[C@H]1C(=O)c1nccs1` (stereo partly drawn) [Example 15, 2-[1-{2-Benzylthioacetylcyclopentan-1-ylcarbonyl)pyrrolidin-2(S)-ylcarbonyl}thiazole], the figure is 54.2 nM.

The same assay, now with this note: porcine kidney enzyme, pH 7.8, 37° C., 20 min; read-out: IC50 (converted).
As to `O=C(c1ncc[nH]1)[C@@H]1CCCN1C(=O)[C@@H]1CCCN1C(=O)CCCc1ccccc1` [Example 28, 2-[1-{1-(4-Phenylbutanoyl)pyrrolidin-2(S)-ylcarbonyl}pyrrolidin-2(S)-ylcarbonyl]-1H-imidazole], the IC50 is 6.24 nM.
On to `O=C(c1cccs1)[C@@H]1CCCN1C(=O)[C@@H]1CCCN1C(=O)OCc1ccccc1` [Example 25], for which the IC50 was 1380 nM.
